# Laboratory results: US20110038952A1, “GAMBOGIC ACID GLYCOSIDE DERIVATIVES AND ANALOGS, THEIR PREPARATION METHODS AND APPLICATIONS” (priority 2007, published 2011)
# What was measured:
# [1] = Body weight of mice in the S180 sarcoma study
# Source text: (§1) Test samples: example compounds 18, 24, 25, 26 and 27
# (§2) Test animals: Kunming kinds of healthy mice (19-21 g), 10 mice (5 male and 5 female)/group, from Beijing Institute of Military Medical Sciences Animal Center.
# (§3) Tumor strains: mice sarcoma S180 for ascites passaged from Beijing Academy of Military Medical Institute of Pharmacology.
# (§4) Xenografts cultured S180 tumor cells were implanted subcutaneously into the flank region of mice and tumors were allowed to grow to the desired average size of 100 mg. The mice were randomized into control and treatment groups with 10 mice per group. The control group was injected with the vehicle used to dissolve the drug. Other groups received the test compounds (example compound 18, 24, 25, 26 and 27) and positive group, cyclophosphamide (CTX) and 5-fluorouracil (5-FU) at the dose and schedule as indicated in Table VI. Injections were I.V. via the tail vein.
# mice sarcoma S180 = assay: Growth inhibition of S180 sarcoma in mice; assay type: in vivo
# Source text: as §1, §2, §3, §4
# [2] = test system: human colorectal cancer cell line HT29; assay: In vitro anti-cancer cell experiment (MTT), HT29; assay type: cell-based; conditions: for IC50 (50% inhibition of cell viability, MTT): HT29, P<0.05
# Method: (§5) a. Cell lines: Human pancreatic cancer cell line Panc-1, human colorectal cancer cell line HT29 and human lung cancer cell line NCI-H460; the medium: s DMEM (Gibco BRL), containing 10% fetal calf serum (Gibco BRL) and 2 mM L-glutamine (Gibco BRL).
# (§6) b. Test samples: example compounds 3, 18, 25 and 27.
# (§7) The samples were dissolved in dimethyl sulfoxide (DMSO, Sigma, United States) and medium was added to the final concentration of 0.5%. Cisplatin was as positive control of (CDDP, purity 96%, from Kunming Institute of Precious Metals).
# (§8) c. Method: cells were digested with trypsin and dispersed into single cells in the medium containing penicillin (25 U/ml) and streptomycin (25 μg/ml). The cells were seeded in 96-well culture plates (Corning Incorporated), at 37° C., in a humidified atmosphere with 5% CO2 present for 24 hours. The culture medium was removed, […] test compounds were added, cultured for 48 hours. Culture medium was removed and […] (MTT, USA Sigma products) was added. The result was assayed by SK601-based microplate reader (Japan Seikagaku company's products), 570 nm/630 nm optical density (OD).
# (§9) Calculation of cell viability: (Experimental group OD/control OD)×100%; Positive control CDDP was treated in the same way.
# [3] = test system: human lung cancer cell line NCI-H460; assay: In vitro anti-cancer cell experiment (MTT), NCI-H460; assay type: cell-based; conditions: NCI-H460, P<0.05
# Method: as §5, §6, §7, §8, §9
# [4] = Chronic toxicity, 30 days, mice
# Method: Animals were given an injection in the tail vein with approximately 100 μl volume of compound formulation or vehicle formulation. Mice body weights were measured daily along with daily observation for 30 days.
# (1) The general behavior, body weight and organ weight of animal.
# (2) Blood test: white blood cells (WB), red blood cells (RB), hemoglobin (Hb), alanine aminotransferase (ALT), aspartate aminotransferase (AST), alkaline phosphatase (ALP), serum uric acid (UA), blood urea (UREA) and creatinine (Cr).
# (3) Pathological examination: heart, liver, spleen, lung and kidney.
# [5] = test system: Human pancreatic cancer cell line Panc-1; assay: In vitro anti-cancer cell experiment (MTT), Panc-1; assay type: cell-based
# Method: as §5, §6, §7, §8, §9
# [6] = S180 mice, I.V. tail vein, 10 mg/kg
# [7] = S180 mice, 24 one dose, 25 three doses, 26 three doses, 27 one dose
# [8] = S180 mice, I.V. tail vein, 25 mg/kg
# [9] = S180 mice, I.V. tail vein, 5 mg/kg
# [10] = mice, tail vein, 2, 4 and 8 mg/kg, 30 days, vs control group
# [11] = S180 mice, I.V. tail vein, 4 mg/kg
# [12] = S180 mice, I.V. tail vein, 8 mg/kg
# [13] = S180 mice, I.V. tail vein, 12 mg/kg
# [14] = S180 mice, I.V. tail vein, 15 mg/kg
# [15] = S180 mice, I.V. tail vein, 1 mg/kg
# [16] = S180 mice, I.V. tail vein, 2 mg/kg
molecule,measurement,setting,value
"COC(=O)/C(C)=C\CC12OC(C)(C)C3C[C@H](C=C4C(=O)c5c(OC6O[C@H](CO)[C@@H](O)[C@@H](O)[C@H]6O)c6c(c(CC=C(C)C)c5OC431)OC(C)(CCC=C(C)C)C=C6)C2=O (stereo partly drawn) [Example 24, Methyl-6-O-D-allosyl gambogate]",body weight/g After ad.,"[1]; mouse, in vivo, iv, 10 mg/kg",19.77 ± 1.88 g
same,body weight/g Before ad.,"[1]; mouse, in vivo, iv, 10 mg/kg",21.67 ± 1.26 g
same,body weight/g Without tumor,"[1]; mouse, in vivo, iv, 10 mg/kg",18.89 ± 1.45 g
same,Inhibition rate (%),mice sarcoma S180; [6],61.0%
same,Tumor weight,mice sarcoma S180; [6],0.94 ± 0.26 g
same,"anti-tumor efficacy (in vivo), statistical significance",mice sarcoma S180; [7],statistically significant
"O=P1(N(CCCl)CCCl)NCCCO1 (centres unmarked) [CTX, cyclophosphamide, reference compound]",body weight/g Without tumor,[1]; [8],23.94 ± 2.60 g
same,body weight/g After ad.,"[1]; S180 mice, I.V. tail vein, 25 mg/kg, after administration",25.44 ± 2.92 g
same,body weight/g Before ad.,"[1]; S180 mice, I.V. tail vein, 25 mg/kg, before administration",22.64 ± 1.28 g
same,Inhibition rate (%),mice sarcoma S180; [8],48.6%
same,Tumor weight,mice sarcoma S180; [8],1.24 ± 0.50 g
"CC(C)=CCCC1(C)C=Cc2c(c(CC=C(C)C)c3c(c2OC(=O)c2ccc(OC4O[C@H](CO)[C@@H](O)[C@@H](O)[C@H]4O)cc2)C(=O)C2=C[C@H]4CC5C(C)(C)OC(C/C=C(/C)C(=O)N(C)Cc6cccc7ccccc67)(C4=O)C25O3)O1 (stereo partly drawn) [Example 27, 6-(4-O-D-Allosylbenzoyl) gambogyl (N-methyl-1-naphthalene) methylamine]","IC50 (50% inhibition of cell viability, MTT)",[2],1.19 µg/mL
same,body weight/g After ad.,"[1]; mouse, in vivo, iv, 25 mg/kg",20.83 ± 1.36 g
same,body weight/g Before ad.,"[1]; mouse, in vivo, iv, 25 mg/kg",20.90 ± 1.06 g
same,body weight/g Without tumor,"[1]; mouse, in vivo, iv, 25 mg/kg",19.00 ± 1.39 g
same,body weight/g After ad.,"[1]; mouse, in vivo, iv, 30 mg/kg",20.22 ± 2.11 g
same,body weight/g Before ad.,"[1]; mouse, in vivo, iv, 30 mg/kg",19.07 ± 1.40 g
same,body weight/g Without tumor,"[1]; mouse, in vivo, iv, 30 mg/kg",18.67 ± 2.08 g
same,"anti-tumor efficacy (in vivo), statistical significance","mice sarcoma S180; mouse, in vivo",statistically significant
same,Inhibition rate (%),"mice sarcoma S180; mouse, in vivo, iv, 25 mg/kg",32.5%
same,Tumor weight,"mice sarcoma S180; mouse, in vivo, iv, 25 mg/kg",1.63 ± 0.47 g
same,Inhibition rate (%),"mice sarcoma S180; mouse, in vivo, iv, 30 mg/kg",37.0%
same,Tumor weight,"mice sarcoma S180; mouse, in vivo, iv, 30 mg/kg",1.52 ± 0.30 g
"CCCCCN(CCCCC)C(=O)/C(C)=C\CC12OC(C)(C)C3C[C@H](C=C4C(=O)c5c(O)c6c(c(CC=C(C)C)c5OC431)OC(C)(CCC=C(C)C)C=C6)C2=O (some centres unmarked) [Example 18, Gambogyl Dipentylamine]",IC50 (the compound concentration producing 50% inhibition of colony formation) on NCI-H460,[3],4.73 µg/mL
same,body weight/g After ad.,"[1]; mouse, in vivo, iv, 5 mg/kg",27.91 ± 4.08 g
same,body weight/g Before ad.,"[1]; mouse, in vivo, iv, 5 mg/kg",22.80 ± 1.73 g
same,body weight/g Without tumor,"[1]; mouse, in vivo, iv, 5 mg/kg",26.49 ± 4.62 g
same,body weight/g After ad.,"[1]; mouse, in vivo, iv, 10 mg/kg",26.08 ± 2.8 g
same,body weight/g Before ad.,"[1]; mouse, in vivo, iv, 10 mg/kg",27.32 ± 2.2 g
same,body weight/g Without tumor,"[1]; mouse, in vivo, iv, 10 mg/kg",25.06 ± 2.09 g
same,Inhibition rate (%),mice sarcoma S180; [9],40.3%
same,Tumor weight,mice sarcoma S180; [9],1.44 ± 0.39 g
same,Inhibition rate (%),mice sarcoma S180; [6],52.5%
same,Tumor weight,mice sarcoma S180; [6],1.14 ± 0.42 g
"COC(=O)/C(C)=C\CC12OC(C)(C)C3C[C@H](C=C4C(=O)c5c(OC(=O)c6ccc(OC7O[C@H](CO)[C@@H](O)[C@@H](O)[C@H]7O)cc6)c6c(c(CC=C(C)C)c5OC431)OC(C)(CCC=C(C)C)C=C6)C2=O (stereo partly drawn) [Example 26, Methyl-6-(4-O-D-allosyl)benzoyl gambogate]",alanine aminotransferase (ALT),"[4]; high dose group, recovery to normal level",slightly incretion
same,Pathological examination: heart,[4]; [10],no abnormal of heart tissue
same,Pathological examination: liver,[4]; [10],no abnormal tissue in rat liver slices
same,Pathological examination: lung,[4]; [10],no abnormal tissue in rat lung slices
same,Pathological examination: renal,[4]; [10],no abnormal tissue in rat renal slices
same,Pathological examination: spleen,[4]; [10],no abnormal tissue in rat spleen slices
same,"toxic pathological changes of the heart, liver, spleen, lung and kidney","[4]; three dose mice groups, continuous administration for 30 days",no toxic pathological changes
same,body weight/g After ad.,"[1]; mouse, in vivo, iv, 4 mg/kg",23.71 ± 3.85 g
same,body weight/g Before ad.,"[1]; mouse, in vivo, iv, 4 mg/kg",25.89 ± 2.62 g
same,body weight/g Without tumor,"[1]; mouse, in vivo, iv, 4 mg/kg",22.54 ± 3.42 g
same,body weight/g After ad.,"[1]; mouse, in vivo, iv, 8 mg/kg",21.42 ± 0.88 g
same,body weight/g Before ad.,"[1]; mouse, in vivo, iv, 8 mg/kg",24.41 ± 2.28 g
same,body weight/g Without tumor,"[1]; mouse, in vivo, iv, 8 mg/kg",20.56 ± 0.54 g
same,body weight/g After ad.,"[1]; mouse, in vivo, iv, 12 mg/kg",26.71 ± 5.56 g
same,body weight/g Before ad.,"[1]; mouse, in vivo, iv, 12 mg/kg",25.58 ± 2.48 g
same,body weight/g Without tumor,"[1]; mouse, in vivo, iv, 12 mg/kg",26.07 ± 5.40 g
same,Inhibition rate (%),mice sarcoma S180; [11],53.7%
same,Tumor weight,mice sarcoma S180; [11],1.12 ± 0.40 g
same,Inhibition rate (%),mice sarcoma S180; [12],60.2%
same,Tumor weight,mice sarcoma S180; [12],0.96 ± 0.32 g
same,Inhibition rate (%),mice sarcoma S180; [13],69.3%
same,Tumor weight,mice sarcoma S180; [13],0.74 ± 0.11 g
same,"anti-tumor efficacy (in vivo), statistical significance",mice sarcoma S180; [7],statistically significant
"CC(C)=CCCC1(C)C=Cc2c(O)c3c(c(CC=C(C)C)c2O1)OC12C(=C[C@H]4CC1C(C)(C)OC2(C/C=C(/C)C(=O)OCCO)C4=O)C3=O (some centres unmarked) [Example 3, Ethylene Glycol Gambogate]",IC50 (the compound concentration producing 50% inhibition of colony formation) on Panc-1,"[5]; Panc-1, P<0.05",23.4 µg/mL
same,IC50 (the compound concentration producing 50% inhibition of colony formation) on NCI-H460,[3],6.18 µg/mL
"O=c1[nH]cc(F)c(=O)[nH]1 [Example 5-FU, 5-fluorouracil, reference compound]",IC50,"[5]; Homo sapiens, Panc-1, 48 hours, MTT",193 µM
same,IC50,"[2]; Homo sapiens, HT-29, HT29, 48 hours, MTT, second of two HT29 columns",92.3 µM
same,body weight/g After ad.,"[1]; mouse, in vivo, iv, 15 mg/kg",28.66 ± 2.89 g
same,body weight/g Before ad.,"[1]; mouse, in vivo, iv, 15 mg/kg",23.07 ± 1.75 g
same,body weight/g Without tumor,"[1]; mouse, in vivo, iv, 15 mg/kg",27.19 ± 2.88 g
same,Inhibition rate (%),mice sarcoma S180; [14],43.2%
same,Tumor weight,mice sarcoma S180; [14],1.37 ± .033 g
"9,10-Dihydro-10-(N-methyl-1-naphthoylamino) gambogyl (N-methyl)-1-naphthoylamine [Example 25]","IC50 (50% inhibition of cell viability, MTT)",[2],3.75 µg/mL
same,body weight/g After ad.,"[1]; mouse, in vivo, iv, 1 mg/kg",24.75 ± 2.56 g
same,body weight/g Before ad.,"[1]; mouse, in vivo, iv, 1 mg/kg",22.59 ± 1.36 g
same,body weight/g Without tumor,"[1]; mouse, in vivo, iv, 1 mg/kg",23.27 ± 2.16 g
same,body weight/g After ad.,"[1]; mouse, in vivo, iv, 2 mg/kg",22.75 ± 3.51 g
same,body weight/g Before ad.,"[1]; mouse, in vivo, iv, 2 mg/kg",22.36 ± 1.30 g
same,body weight/g Without tumor,"[1]; mouse, in vivo, iv, 2 mg/kg",21.69 ± 3.13 g
same,body weight/g After ad.,"[1]; mouse, in vivo, iv, 4 mg/kg",21.47 ± 3.69 g
same,body weight/g Before ad.,"[1]; mouse, in vivo, iv, 4 mg/kg",22.38 ± 1.80 g
same,body weight/g Without tumor,"[1]; mouse, in vivo, iv, 4 mg/kg",20.77 ± 3.37 g
same,Inhibition rate (%),mice sarcoma S180; [15],44.6%
same,Tumor weight,mice sarcoma S180; [15],1.34 ± 0.47 g
same,Inhibition rate (%),mice sarcoma S180; [16],58.3%
same,Tumor weight,mice sarcoma S180; [16],1.00 ± 0.34 g
same,Inhibition rate (%),mice sarcoma S180; [11],65.2%
same,Tumor weight,mice sarcoma S180; [11],0.84 ± 0.35 g
same,"anti-tumor efficacy (in vivo), statistical significance",mice sarcoma S180; [7],statistically significant
